Measurements: article PMC7397748, “Unlabeled lysophosphatidic acid receptor binding in free solution as determined by a compensated interferometric reader” (Journal of Lipid Research, 2020)

molecular target: T1, lysophosphatidic acid receptor 1 (LPA1) (Homo sapiens, UniProt Q92633); assay: label-free free-solution assay with compensated interferometric reader (FSA-CIR), receptor nanovesicles, vector-subtracted; format: binding; conditions: read-out: KD ± SEM
T1 construct: gene LPAR1; human LPA1 with N-terminal HA tag (HA-LPA1), in B103 cell membrane nanovesicles
T1 sequence (Q92633 whole entry): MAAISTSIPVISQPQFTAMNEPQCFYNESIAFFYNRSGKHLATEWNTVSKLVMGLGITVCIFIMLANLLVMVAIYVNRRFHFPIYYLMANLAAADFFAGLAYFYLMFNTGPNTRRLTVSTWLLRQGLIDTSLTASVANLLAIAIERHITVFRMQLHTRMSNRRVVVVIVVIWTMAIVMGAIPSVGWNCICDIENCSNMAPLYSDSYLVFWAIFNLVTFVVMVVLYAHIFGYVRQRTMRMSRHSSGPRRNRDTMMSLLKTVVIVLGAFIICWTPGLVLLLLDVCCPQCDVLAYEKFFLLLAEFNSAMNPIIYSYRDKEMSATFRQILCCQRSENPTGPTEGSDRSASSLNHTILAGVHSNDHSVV

Row | SMILES | Kd [nM]
1 | CCCCCCCCCCCCCCCC(=O)OC[C@@H](O)COP(=O)(O)O [16:0 LPA, 1-palmitoyl-LPA] | 1.69
2 | CCCCCCCC/C=C\CCCCCCCC(=O)OC[C@@H](O)COP(=O)(O)O [18:1 LPA, 1-oleoyl-LPA] | 2.08
3 | CCCCC/C=C\C/C=C\C/C=C\C/C=C\CCCC(=O)OC[C@@H](O)COP(=O)(O)O [20:4 LPA, 1-arachidonoyl-LPA] | 2.59
